ChEMBL document CHEMBL1201862, “PubChem BioAssay data set” (2004)
Active and inactive are the calls of the source.

Experiments:
[1] = control 3'UTR Renilla luciferase suppression, dose response, counter-screen for Shn3 inhibitor project, cell-based, Clone20-Shn3RL, cherry-picked (AID 624133); format: functional
[2] = cells; format: functional, cell-based
[3] = inhibitors of intracellular T. cruzi replication, confirmation, NIH3T3 host cells, beta-gal luminescence (AID 2044); format: functional, cell-based;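 further: intracellular parasites grown in NIH/3T3 mouse fibroblasts as host cells; luminescent beta-galactosidase reporter signal from transgenic T. cruzi replicating inside host cells; inhibitors lower the luminescence signal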
[4] = HepG2 cell cytotoxicity, dose response, cytotoxicity control for Shn3 inhibitor project, CellTiter-Glo, cherry-picked (AID 624134); format: functional, cell-based
[5] = biological target: T1, Luciferin 4-monooxygenase (Photinus pyralis, UniProt P08659); experiment: Counter Screen for Luciferase-based Assay Positives. [Related pubchem assays: 620, 618, 411 ]
T1 sequence (P08659 whole entry): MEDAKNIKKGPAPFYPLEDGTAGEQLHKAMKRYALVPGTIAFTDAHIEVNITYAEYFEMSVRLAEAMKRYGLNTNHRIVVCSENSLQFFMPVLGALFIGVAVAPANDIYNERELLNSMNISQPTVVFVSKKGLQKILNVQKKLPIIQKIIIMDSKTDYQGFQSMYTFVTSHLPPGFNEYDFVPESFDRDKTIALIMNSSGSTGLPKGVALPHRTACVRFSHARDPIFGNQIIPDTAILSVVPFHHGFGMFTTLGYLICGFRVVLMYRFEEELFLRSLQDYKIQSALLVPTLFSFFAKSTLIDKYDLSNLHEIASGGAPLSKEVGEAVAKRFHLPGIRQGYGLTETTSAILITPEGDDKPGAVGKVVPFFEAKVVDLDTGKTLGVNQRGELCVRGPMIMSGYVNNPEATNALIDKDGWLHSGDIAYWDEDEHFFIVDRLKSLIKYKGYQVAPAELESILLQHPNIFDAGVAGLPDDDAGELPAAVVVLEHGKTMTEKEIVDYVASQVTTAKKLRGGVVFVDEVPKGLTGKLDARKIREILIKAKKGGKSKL

[6] = biological target: Nonstructural protein 1 (Influenza A virus, UniProt Q194T2); format: functional, Influenza A virus (A/California/07/2009(H1N1))
Chain of Nonstructural protein 1 (Q194T2 whole entry): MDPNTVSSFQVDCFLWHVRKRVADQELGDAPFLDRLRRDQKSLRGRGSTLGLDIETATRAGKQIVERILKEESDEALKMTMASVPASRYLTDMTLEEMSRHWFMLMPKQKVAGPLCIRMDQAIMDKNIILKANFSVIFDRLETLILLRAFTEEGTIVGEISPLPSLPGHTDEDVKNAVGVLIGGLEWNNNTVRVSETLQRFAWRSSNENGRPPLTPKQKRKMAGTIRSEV

[7] = tested on: HT-1080; experiment: cytotoxicity in HT1080 fibrosarcoma cells, cell-based, fluorescence readout (AID 620); format: functional; conditions: Homo sapiens
[8] = cytotoxicity toward NIH3T3 fibroblasts, dose response, counter-screen, cell-based, ATP luminescence, mouse fibroblasts (AID 2010); format: functional;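 further: cells exposed to compound for about 90 hours before reading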
[9] = Shn3 3'UTR reporter inhibitors, dose response, cell-based, Clone20 osteoblasts, firefly luciferase, cherry-picked (AID 624132); format: functional;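 further: firefly luciferase luminescence from reporter carrying the Shn3 3'UTR in osteoblasts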
[10] = biological target: T2, Microphthalmia-associated transcription factor (Homo sapiens, UniProt O75030); experiment: TRPM1 promoter luciferase signal decrease, dose response, MITF inhibitor project, cell-based, SK-MEL-5, cherry-picked, set 3 (AID 493073); format: functional
T2 sequence (O75030 whole entry): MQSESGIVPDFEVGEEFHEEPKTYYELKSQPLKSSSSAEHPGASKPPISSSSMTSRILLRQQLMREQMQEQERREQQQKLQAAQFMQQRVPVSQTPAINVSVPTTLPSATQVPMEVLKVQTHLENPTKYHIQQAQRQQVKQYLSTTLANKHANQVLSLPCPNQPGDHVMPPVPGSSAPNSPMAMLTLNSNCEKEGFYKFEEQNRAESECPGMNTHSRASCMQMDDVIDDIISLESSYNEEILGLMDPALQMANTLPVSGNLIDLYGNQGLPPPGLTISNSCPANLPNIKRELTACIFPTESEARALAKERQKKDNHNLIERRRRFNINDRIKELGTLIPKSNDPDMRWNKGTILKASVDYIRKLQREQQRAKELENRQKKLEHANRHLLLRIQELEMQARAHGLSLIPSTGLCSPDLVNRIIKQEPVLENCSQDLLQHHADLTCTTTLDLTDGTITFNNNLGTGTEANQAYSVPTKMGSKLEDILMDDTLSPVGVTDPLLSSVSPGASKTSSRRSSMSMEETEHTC

[11] = tested on: A-375; experiment: A375 melanoma cell viability reduction, dose response, counter-screen for MITF modulator project, cherry-pick samples, set 2 (AID 540335); format: functional, cell-based; conditions: Homo sapiens
[12] = cells; format: functional, cell-based; remark: listed apart in the source
[13] = biological target: T3, Coagulation factor XII (Homo sapiens, UniProt P00748); format: functional;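 further: activated factor XIIa alpha cleaving a fluorogenic AMC peptide substrate; inhibitor potency from loss of enzyme activity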
T3 sequence (P00748 whole entry): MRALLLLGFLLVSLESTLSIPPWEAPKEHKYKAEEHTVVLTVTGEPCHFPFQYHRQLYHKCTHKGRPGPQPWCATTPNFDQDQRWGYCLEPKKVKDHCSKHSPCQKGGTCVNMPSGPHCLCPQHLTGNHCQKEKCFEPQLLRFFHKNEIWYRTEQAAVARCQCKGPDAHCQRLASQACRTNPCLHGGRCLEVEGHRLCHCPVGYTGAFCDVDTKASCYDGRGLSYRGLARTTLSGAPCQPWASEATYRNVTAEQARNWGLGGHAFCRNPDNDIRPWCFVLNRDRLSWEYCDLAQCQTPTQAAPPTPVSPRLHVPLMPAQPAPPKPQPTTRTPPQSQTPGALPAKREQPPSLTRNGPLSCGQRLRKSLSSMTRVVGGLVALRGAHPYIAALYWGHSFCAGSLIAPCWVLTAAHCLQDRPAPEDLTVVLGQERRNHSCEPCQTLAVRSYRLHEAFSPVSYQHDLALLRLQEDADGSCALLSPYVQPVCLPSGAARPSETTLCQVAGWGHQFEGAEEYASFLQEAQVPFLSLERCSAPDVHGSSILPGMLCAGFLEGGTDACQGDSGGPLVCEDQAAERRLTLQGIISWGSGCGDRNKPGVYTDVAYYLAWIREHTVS

[14] = biological target: T4, Protein RecA (Mycobacterium tuberculosis, UniProt P9WHJ3); experiment: Fluorescence Cell-Free Homogeneous Dose Retest to Identify Inhibitors of RecA-Intein Splicing Activity. [Related pubchem assays (depositor defined):AID2097, AID2223, AID489010, AID492950]; format: functional
T4 sequence (P9WHJ3 whole entry): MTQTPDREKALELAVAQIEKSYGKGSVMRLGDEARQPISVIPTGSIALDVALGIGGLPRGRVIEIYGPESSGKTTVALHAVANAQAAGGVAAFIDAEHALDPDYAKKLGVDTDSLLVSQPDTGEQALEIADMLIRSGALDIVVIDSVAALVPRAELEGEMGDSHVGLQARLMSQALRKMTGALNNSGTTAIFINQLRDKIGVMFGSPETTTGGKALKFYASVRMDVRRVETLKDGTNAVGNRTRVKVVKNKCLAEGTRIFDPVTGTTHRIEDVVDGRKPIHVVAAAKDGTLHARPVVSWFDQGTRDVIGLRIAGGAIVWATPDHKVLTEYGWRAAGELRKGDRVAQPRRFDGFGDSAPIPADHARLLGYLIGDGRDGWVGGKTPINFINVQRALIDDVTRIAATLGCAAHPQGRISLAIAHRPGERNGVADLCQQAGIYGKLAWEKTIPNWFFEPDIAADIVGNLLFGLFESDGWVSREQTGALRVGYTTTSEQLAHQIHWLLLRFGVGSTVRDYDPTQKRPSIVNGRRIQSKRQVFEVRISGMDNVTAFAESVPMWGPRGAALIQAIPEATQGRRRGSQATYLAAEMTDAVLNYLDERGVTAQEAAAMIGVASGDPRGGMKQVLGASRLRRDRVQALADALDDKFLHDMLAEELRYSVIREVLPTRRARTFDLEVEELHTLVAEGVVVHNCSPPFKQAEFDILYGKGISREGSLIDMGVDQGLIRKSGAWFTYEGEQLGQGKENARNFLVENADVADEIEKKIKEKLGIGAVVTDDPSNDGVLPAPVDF

[15] = tested on: A-375; experiment: MITF: Counter assay: A375 proliferation Measured in Cell-Based System Using Plate Reader - 2084-03_Inhibitor_Dose_DryPowder_Activity. [Related pubchem assays (depositor defined):AID488944]; format: functional; conditions: Homo sapiens
[16] = biological target: T5, Replicative DNA helicase DnaB (Mycobacterium tuberculosis, UniProt P9WMR3); experiment: DnaB intein splicing inhibitors, dose response, biochemical, cell-free fluorescence (AID 449749); format: functional
T5 sequence (P9WMR3 whole entry): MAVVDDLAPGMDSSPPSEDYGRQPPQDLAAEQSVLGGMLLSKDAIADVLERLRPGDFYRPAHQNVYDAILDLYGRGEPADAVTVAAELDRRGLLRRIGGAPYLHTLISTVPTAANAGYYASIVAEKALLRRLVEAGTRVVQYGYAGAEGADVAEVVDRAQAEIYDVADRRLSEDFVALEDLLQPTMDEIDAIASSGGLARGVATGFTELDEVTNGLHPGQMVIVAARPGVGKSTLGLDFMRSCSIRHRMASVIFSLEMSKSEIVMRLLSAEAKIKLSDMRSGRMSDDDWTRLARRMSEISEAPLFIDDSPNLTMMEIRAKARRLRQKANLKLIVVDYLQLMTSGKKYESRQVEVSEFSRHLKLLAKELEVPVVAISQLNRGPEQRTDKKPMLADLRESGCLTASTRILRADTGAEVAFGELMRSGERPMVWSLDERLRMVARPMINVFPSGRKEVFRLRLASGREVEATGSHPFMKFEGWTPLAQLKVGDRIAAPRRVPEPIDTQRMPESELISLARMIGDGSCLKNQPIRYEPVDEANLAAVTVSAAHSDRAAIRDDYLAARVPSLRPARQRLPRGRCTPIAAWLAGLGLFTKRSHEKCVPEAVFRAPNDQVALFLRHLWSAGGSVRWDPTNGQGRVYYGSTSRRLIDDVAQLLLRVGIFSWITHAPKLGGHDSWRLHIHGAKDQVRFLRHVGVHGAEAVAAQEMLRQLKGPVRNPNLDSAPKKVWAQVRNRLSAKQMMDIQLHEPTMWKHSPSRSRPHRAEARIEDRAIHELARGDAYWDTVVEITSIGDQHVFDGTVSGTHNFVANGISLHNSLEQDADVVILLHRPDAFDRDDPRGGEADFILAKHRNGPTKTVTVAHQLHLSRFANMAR

[17] = biological target: Dual specificity tyrosine-phosphorylation-regulated kinase 1A (Rattus norvegicus, UniProt Q63470); format: biochemical, Homo sapiens
[18] = biological target: T6, DNA repair and recombination protein RAD54-like (Homo sapiens, UniProt Q92698); experiment: inhibitors of human RAD54 branch migration, confirmation, biochemical, fluorescence, cherry-picked samples, dose series (AID 651657); format: functional
T6 sequence (Q92698 whole entry): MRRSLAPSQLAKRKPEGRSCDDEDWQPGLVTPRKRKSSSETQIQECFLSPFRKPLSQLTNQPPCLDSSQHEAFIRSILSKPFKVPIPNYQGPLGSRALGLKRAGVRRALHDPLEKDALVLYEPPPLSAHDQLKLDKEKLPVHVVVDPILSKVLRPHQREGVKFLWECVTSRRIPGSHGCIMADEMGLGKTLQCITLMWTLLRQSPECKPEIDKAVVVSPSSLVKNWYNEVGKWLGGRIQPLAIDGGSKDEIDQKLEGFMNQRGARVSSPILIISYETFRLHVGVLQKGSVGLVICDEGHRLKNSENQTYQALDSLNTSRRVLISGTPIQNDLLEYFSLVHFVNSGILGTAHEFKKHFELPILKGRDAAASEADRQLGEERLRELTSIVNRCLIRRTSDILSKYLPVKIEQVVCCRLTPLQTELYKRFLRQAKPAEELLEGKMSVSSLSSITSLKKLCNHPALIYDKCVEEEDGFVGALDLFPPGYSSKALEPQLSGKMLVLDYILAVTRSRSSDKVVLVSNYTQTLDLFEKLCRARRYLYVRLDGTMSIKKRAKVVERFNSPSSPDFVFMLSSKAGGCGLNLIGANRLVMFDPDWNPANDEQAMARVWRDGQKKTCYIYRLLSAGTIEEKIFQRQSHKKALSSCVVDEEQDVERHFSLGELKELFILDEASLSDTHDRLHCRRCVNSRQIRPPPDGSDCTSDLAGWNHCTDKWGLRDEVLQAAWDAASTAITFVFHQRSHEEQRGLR

[19] = DNA binding of candidate compounds, dose response, artefact control for RAD54 inhibitor project, biochemical, fluorescence polarization, cherry-pick (AID 651673); format: functional
[20] = Luminescence Cell-Based Dose Confirmation HTS to Identify Inhibitors of Platelet Dense Granule Release. [Related pubchem assays: 1663 (Primary HTS), 1678 (Summary of Project)]; format: functional
[21] = biological target: T1, Luciferin 4-monooxygenase; experiment: firefly luciferase enzyme inhibitors, dose response, biochemical, luminescence (AID 1891)
[22] = biological target: CAAX prenyl protease 1 (Saccharomyces cerevisiae S288c, UniProt P47154); experiment: Ste24 protease inhibitors, dose response, biochemical, S. cerevisiae, plate reader, cherry-pick (AID 488815)
Chain of CAAX prenyl protease 1 (P47154 whole entry): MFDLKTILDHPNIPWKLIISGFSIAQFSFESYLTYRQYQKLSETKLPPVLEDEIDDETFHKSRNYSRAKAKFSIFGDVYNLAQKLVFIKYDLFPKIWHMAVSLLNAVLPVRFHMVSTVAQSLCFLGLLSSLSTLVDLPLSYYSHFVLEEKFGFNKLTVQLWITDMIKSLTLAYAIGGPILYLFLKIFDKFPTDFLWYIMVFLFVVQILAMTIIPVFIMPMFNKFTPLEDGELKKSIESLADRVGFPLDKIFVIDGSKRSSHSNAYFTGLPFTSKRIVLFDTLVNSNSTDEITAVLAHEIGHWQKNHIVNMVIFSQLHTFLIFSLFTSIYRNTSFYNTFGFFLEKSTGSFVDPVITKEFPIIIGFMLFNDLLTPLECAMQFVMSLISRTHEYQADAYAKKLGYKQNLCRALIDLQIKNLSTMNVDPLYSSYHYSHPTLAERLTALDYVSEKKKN

[23] = biological target: Trypsin (Sus scrofa, UniProt P00761); experiment: porcine trypsin inhibitors, dose response, selectivity assay for Rce1 protease inhibitor project, biochemical, quenched peptide fluorescence, cherry-pick (AID 488789)
Chain of Trypsin (P00761 whole entry): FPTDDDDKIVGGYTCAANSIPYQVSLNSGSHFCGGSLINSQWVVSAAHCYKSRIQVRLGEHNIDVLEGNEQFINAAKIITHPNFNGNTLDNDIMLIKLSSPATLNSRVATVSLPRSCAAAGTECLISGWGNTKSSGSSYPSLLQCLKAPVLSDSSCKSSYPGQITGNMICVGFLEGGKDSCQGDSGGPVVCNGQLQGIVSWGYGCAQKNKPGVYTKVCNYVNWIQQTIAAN

[24] = biological target: CAAX prenyl protease 2 (Homo sapiens, UniProt Q9Y256); experiment: human Rce1 protease inhibitors, dose response, biochemical, yeast membranes, quenched-peptide fluorescence, cherry-pick (AID 588849)
Chain of CAAX prenyl protease 2 (Q9Y256 whole entry): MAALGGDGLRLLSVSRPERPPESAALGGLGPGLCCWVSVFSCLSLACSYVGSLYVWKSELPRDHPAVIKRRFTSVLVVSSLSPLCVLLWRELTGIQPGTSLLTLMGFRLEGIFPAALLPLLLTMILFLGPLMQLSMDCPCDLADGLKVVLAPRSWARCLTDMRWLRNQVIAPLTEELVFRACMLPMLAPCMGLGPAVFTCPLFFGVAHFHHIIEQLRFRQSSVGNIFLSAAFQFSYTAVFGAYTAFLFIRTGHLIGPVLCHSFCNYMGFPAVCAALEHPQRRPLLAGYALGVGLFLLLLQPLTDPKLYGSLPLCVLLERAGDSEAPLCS

[25] = biological target: Dual specificity protein phosphatase 3 (Homo sapiens, UniProt P51452); experiment: SAR VHR1 Fluorescent Assay for In Vitro dose response studies Set 3. [Related pubchem assays (depositor defined):AID1654, AID1661, AID1878]; format: functional
Chain of Dual specificity protein phosphatase 3 (P51452 whole entry): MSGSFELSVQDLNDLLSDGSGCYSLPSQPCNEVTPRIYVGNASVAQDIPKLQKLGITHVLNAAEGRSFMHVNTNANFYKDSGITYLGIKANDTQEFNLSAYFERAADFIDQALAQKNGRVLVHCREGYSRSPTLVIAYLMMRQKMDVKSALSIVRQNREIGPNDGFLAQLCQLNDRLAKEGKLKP

[26] = tested on: Escherichia coli; experiment: microbe, parasite or virus in culture

Oc1c(CN2CCCCC2)cc(COCc2ccccc2)c2cccnc12
AC50 [1]: 7.15 µM (active) | EC50 [2]: > 350 µM (not active) | EC50 [3]: 4.04 µM (active) | AC50 [4]: 10.8 µM (active) | EC50 [5]: > 100 µM (not active) | IC50 [6]: 1.86 µM (active) | EC50 [7]: 27.9 µM (active) | EC50 [8]: 6.52 µM (active) | AC50 [9]: 0.537 µM (active) | AC50 [10]: 2.17 µM (active) | AC50 [11]: 13.5 µM (active) | EC50 [12]: 7.62 µM (active)

O=c1c(Cl)c(Cl)cnn1Cc1ccc(F)cc1
IC50 [13]: > 50 µM (inactive) | EC50 [14]: 11.3 µM (active) | AC50 [15]: 30.8 µM (active) | AC50 [10]: 8.9 µM (active) | AC50 [16]: 39.5 µM (active)

COc1ccc2cc3cc(C(=O)NCCCN4CCOCC4)oc3nc2c1
AC50 [17]: 5.51 µM (active) | EC50 [3]: 2.2 µM (active) | AC50 [18]: 36.7 µM (active) | EC50 [8]: > 60 µM (not active) | AC50 [19]: 55.3 µM (active)

CCn1c(-c2cccs2)nc2ccccc21
EC50 [20]: > 112 µM (not active) | EC50 [21]: > 112 µM (not active) | AC50 [22]: 2.54 µM (active) | AC50 [23]: 6.83 µM (active) | AC50 [24]: 11.6 µM (active)

CSc1ccc2nc(Nc3nnc(-c4ccc5c(c4)OCCO5)o3)sc2c1
IC50 [25]: 0.682 µM (active)

COc1ccccc1C(C[N+](=O)[O-])c1c[nH]c2ccccc12 (centres undefined)
AC50 [26]: 90.9 µM (active)
